According to patent US7569554B2, “Synergistic treatment of cancer using immunomers in conjunction with therapeutic agents” (Idera Pharmaceuticals, Inc., priority 2003, dated 2009):
Where a name gives a salt, the structure may show the parent alone.

Tests used:
[1] = Body weight and clinical observation of PC3 tumor-bearing nude mice; format: in vivo, mouse; details: compared with controls
[2] = test system: human prostate cancer PC3 xenografts; test: Tumor mass, human prostate cancer PC3 xenografts in nude mice, with Gemcitabine; format: in vivo, mouse; details: 160 mg/kg
Description: (§1) PC3 cells were cultured in 90% Ham's, F12K Medium with 10% Fetal Bovine Serum (FBS), in presence of 100 U/ml Penicillin and 100 μg/ml Streptomycin to establish the Human Prostate cancer model (PC3). Male athymic nude mice, 4-6 weeks old (Frederick Cancer Research and Development Center, Frederick, Md.), were accommodated for 6 days for environmental adjustment prior to the study. Cultured PC3 cells were harvested from the monolayer cultures, washed twice with Ham's, F12K Medium (10% FBS), resuspended in FBS-free Ham's, F12K Medium: Matrigel basement membrane matrix (Becton Dickinson Labware, Bedford, Mass.) (5:1; V/V), and injected subcutaneously (5×10^6 cells, total volume 0.2 ml) into the left inguinal area of each of the mice. The animals were monitored by general clinical observation, body weight, and tumor growth. Tumor growth was monitored by the measurement, with calipers, of two perpendicular diameters of the implant. Tumor mass (weight in grams) was calculated by the formula, 1/2a X b^2, where ‘a’ is the long diameter (cm) and ‘b’ is the short diameter (cm). When the mean tumor sizes reached ˜80 mg, the animals bearing human cancer xenografts were randomly divided into the treatment and control groups (5 animals/group). The control group received sterile physiological saline (0.9% NaCl) only. Immunomer 255 or 285, aseptically dissolved in physiological saline, was administered by subcutaneously injection at dose of 0.5 or 1.0 mg/kg/day, 3 doses/week. […] The detailed treatment schedule is shown as follows.

[3] = test system: human prostate cancer PC3 xenografts; test: PC3 xenograft experiment repeated with taxotere; format: in vivo, mouse; parameters: unit: mg; details: 15 mg/kg
Description: as §1
Taxotere was administered on days 0 and 7. Immunomer 165 was administered 5 days per week. Immunomers 255 and 285 were administered on days 0, 2, 4, 7, 9 and 11.

CD69+ and CD86+ cells = test: Activation of CD69+ and CD86+ cells in peripheral blood; format: in vivo, mouse; details: docetaxel 30 mg/kg days 1 and 3, IMO 2 5 mg/kg days 1, 3, 5, 7; FIG. 24C
4T1 breast tumor = 4T1 breast tumor in BALB/c mice, combination with doxorubicin; format: in vivo, mouse; details: IMO 2 1 mg/kg peritumoral, doxorubicin 30 mg/kg i.p; FIG. 24A
Description: For the 4T1 tumor models, 5×10^5 cells/mouse in. 100 μl PBS were implanted into BALB/c mice in the lower right flank. On day 5 when the average tumor size reached 50 mm^2, the mice were given i.p injections of 30 mg/kg doxorubicin (Bedford lab, Bedford, Ohio) for three times on days 5, 6 and 7. IMO 2 (1 mg/kg) dissolved in 100 μl PBS was administrated by peritumoral injection at twice a week interval for a total of six times.

[4] = In vitro cytokine induction profiles of IMO compounds (FIG. 16); format: cell-based
CT26.CL25 colon tumor = test: Subcutaneous CT26.CL25 colon tumor in BALB/c mice; format: in vivo, mouse
Description: For subcutaneous solid tumor models, 10^6 CT26.CL25 cells/mouse or 5×10^5 B16.F0 cells/mouse in 100 μl of PBS were implanted into BALB/c or C57BL/6 mice in the lower right flank. The tumor size reached to 50 to 200 mg on day 6 for CT26.CL25 and on day 8 for B16.F0 post tumor inoculation. The tumor bearing mice were then treated with peritumoral injection of IMO compounds or non-CpG DNA control at a dose of 1 mg/kg every other day for 10 times. Tumor growth was recorded with the use of calipers, by measuring the long and short diameters of the tumor. Tumor volumes were measured with a caliper and the formula (0.5×length×width^2) was applied to determine tumor growth kinetics.
The antitumor activity of IMO compounds in a murine colon carcinoma CT26.CL25 model was evaluated. BALB/c mice bearing CT26.CL25 subcutaneous solid tumors were treated with 1 mg/kg IMO compounds by peritumoral administration every other day for 10 times starting on day 6 following tumor inoculation.

BALB/c mice = test: In vivo serum cytokine induction; parameters: species or system mouse; details: for IL-6 (serum) / IL-12 (serum): 10 mg/kg, 4 hrs
Description: To assess serum cytokine levels, BALB/c mice (n=5) were injected intraperitoneally (i.p), subcutaneously (s.c) or intramuscularly (i.m) with IMO compounds at 10 mg/kg (single dose). Sera was collected by retro-orbital bleeding at 4 hrs of IMO administration and determined IL-112 and IL-6 by sandwich ELISA. Cytokine antibodies and standards were purchased from PharMingen (San Diego, Calif.).
To evaluate the immunopharmacological effects in vivo, IMO compounds, CpG immunomers, and non-CpG oligos were administered to BALB/c mice i.p, s.c or i.m at a dose of 10 mg/kg and their serum was evaluated for IL-12 and IL-6 after 4 hrs.

[5] = test system: Her-2 positive BT-474 cells; test: Lysis of BT-474 cells by IMO-activated human PBMCs in the presence of Herceptin; format: cell-based; details: FIG. 26

Q: For `Nc1ccn([C@@H]2O[C@H](CO)[C@@H](O)C2(F)F)c(=O)n1` [Gemcitabine, Gemcitabine HCl], which Body weight gains [1] is on record?
A: Its Body weight gains is “body weight loss in the first week and recovered in a week afterwards”.

Q: And the Tumor mass ([2]; Day 0)?
A: Its Tumor mass is 82.6 mg.

Q: And the Tumor mass ([2]; Day 3)?
A: The Tumor mass was 73.0 mg.

Q: What about the Tumor mass ([2]; Day 9) of the same molecule?
A: Its Tumor mass is 35.7 mg.

Q: And the Tumor mass ([2]; Day 12)?
A: Its Tumor mass is 36.2 mg.

Q: What about the Tumor mass ([2]; Day 15) of the same molecule?
A: Its Tumor mass is 31.7 mg.

Q: And the Tumor mass ([2]; Day 18)?
A: The Tumor mass was 40.8 mg.

Q: What about the Tumor mass ([2]; Day 24) of the same molecule?
A: Its Tumor mass is 56.5 mg.

Q: And the Tumor mass ([2]; Day 27)?
A: The Tumor mass was 68.0 mg.

Q: What about the Tumor mass ([2]; Day 30) of the same molecule?
A: The Tumor mass was 89.4 mg.

Q: And the Tumor mass ([2]; Day 33)?
A: The Tumor mass was 106.5 mg.

Q: What about the Tumor mass ([2]; Day 36) of the same molecule?
A: Its Tumor mass is 144.2 mg.

Q: What about the Tumor mass ([2]; Day 39) of the same molecule?
A: Its Tumor mass is 175.3 mg.

Q: And the Tumor mass ([2]; Day 42)?
A: The Tumor mass was 269.1 mg.

Q: What about the Tumor mass ([2]; Day 45) of the same molecule?
A: Its Tumor mass is 383.8 mg.

Q: What about the Tumor mass ([2]; Day 48) of the same molecule?
A: The Tumor mass was 538.6 mg.

Q: Which “In vivo anti-cancer activity (tumor mass)” value (shortened to “In vivo anti-cancer activity”) ([3]; Day 0.00) does the source give for `CC(=O)O[C@@]12CO[C@@H]1C[C@H](O)[C@@]1(C)C(=O)[C@H](O)C3=C(C)[C@@H](OC(=O)[C@H](O)[C@@H](NC(=O)OC(C)(C)C)c4ccccc4)C[C@@](O)([C@@H](OC(=O)c4ccccc4)[C@H]21)C3(C)C` [Taxotere, Docetaxel] here?
A: Its value is 56.64.

Q: What about the “In vivo anti-cancer activity” value ([3]; Day 3.00) of the same molecule?
A: The value was 128.51.

Q: And the “In vivo anti-cancer activity” value ([3]; Day 6.00)?
A: The value was 320.63.

Q: What about the “In vivo anti-cancer activity” value ([3]; Day 9.00) of the same molecule?
A: Its value is 598.69.

Q: What about the “In vivo anti-cancer activity” value ([3]; Day 12.00) of the same molecule?
A: The value was 924.91.

Q: And the “In vivo anti-cancer activity” value ([3]; Day 15.00)?
A: Its value is 1589.08.

Q: And the “Percentage of CD69+ and CD86+ cells” value (CD69+ and CD86+ cells)?
A: Its value is “did not inhibit such activations”.

Q: With `COc1cccc2c1C(=O)c1c(O)c3c(c(O)c1C2=O)C[C@@](O)(C(=O)CO)C[C@@H]3O[C@H]1C[C@H](N)[C@H](O)[C@H](C)O1` [doxorubicin, reference compound] as the molecule, how does the “Inhibition of 4T1 tumor growth” value (4T1 breast tumor) read?
A: Its value is “strong inhibition”.

Q: Which results are given for “IMO 1: IMO compound of FIG. 15, first in order (SEQ ID NO 13) (DNA TCTGACGTTCT; listed as DNA, chemistry not given here)”?
A: IL-12 secretion in vitro [4]: strong IL-12 secretion; Average tumor growth inhibition (CT26.CL25 colon tumor; day 24, compared with non-CpG DNA treated mice, 1 mg/kg peritumoral): 72%; IL-6 (serum) (BALB/c mice; Intramuscular (i.m)): 5.8 ± 0.5 ng/mL; IL-12 (serum) (BALB/c mice; Intramuscular (i.m)): 109.3 ± 25 ng/mL; IL-6 (serum) (BALB/c mice; Intraperitoneal (i.p)): 5.9 ± 0.2 ng/mL; IL-12 (serum) (BALB/c mice; Intraperitoneal (i.p)): 59.0 ± 11 ng/mL; IL-6 (serum) (BALB/c mice; Subcutaneous (s.c)): 4.3 ± 0.3 ng/mL; IL-12 (serum) (BALB/c mice; Subcutaneous (s.c)): 98.3 ± 15 ng/mL

Q: With “IMO 3: IMO compound of FIG. 15 (SEQ ID NO 18) containing a human-specific motif (DNA TCTGTCNTTCT; listed as DNA, further chemistry not given here)” as the molecule, how does the “Lysis of BT-474 cells” value [5] read?
A: The value was “induces lysis of Her-2 positive BT-474 cells in the presence of Herceptin”.

Q: And the Antitumor activity (CT26.CL25 colon tumor; FIG. 25A)?
A: The Antitumor activity was “potent antitumor activity”.

Q: What about the “Serum IL-12 secretion in mice” value (BALB/c mice; 4 hr after administration, FIG. 25B) of the same molecule?
A: Its value is “induced IL-12 secretion”.
